{"source": "paper PMC9090141", "about": "(Pediatric blood & cancer, 2021)", "key": {"[1]": {"system": "recurrent or refractory solid and CNS tumors", "assay": "Radiographic antitumor response", "assay_type": "in vivo, human"}, "[2]": {"system": "pCHK1", "conditions": "cited from earlier work"}, "[3]": {"conditions": "in vivo; cited from earlier work"}, "[4]": {"system": "adults with advanced or metastatic solid tumors", "conditions": "cited from earlier work"}, "[5]": {"system": "pediatric cancer cell lines", "conditions": "cited from earlier work"}, "[6]": {"conditions": "adults, 105 mg/m^2, cited from earlier work"}, "[7]": {"assay": "Plasma pharmacokinetics in cycle 1", "assay_type": "in vivo, human", "conditions": "for Tmax / half-life / concentration at 24 h / AUC(0-inf) / AUC(0-t) / Cmax: plasma; for concentration at 24 h: RP2D (150 mg/m^2)"}, "[8]": {"system": "pediatric tumor xenograft models", "conditions": "in vivo; cited from earlier work"}, "[9]": {"conditions": "25 patients evaluable for response"}, "[10]": {"conditions": "80 mg/m^2 IV over 60 min, first dose cycle 1, 6 patients"}, "[11]": {"conditions": "100 mg/m^2 IV over 60 min, first dose cycle 1, 6 patients"}, "[12]": {"conditions": "125 mg/m^2 IV over 60 min, first dose cycle 1, 5 patients"}, "[13]": {"conditions": "150 mg/m^2 IV over 60 min, first dose cycle 1, 12 patients"}, "[14]": {"conditions": "All Patients (80-150 mg/m^2), first dose cycle 1, 29 patients"}}, "note": "Where “and” joins values, the source holds several entries; their conditions need not be identical. Equal entries are not always repeated. Entries after “also recorded” stand apart in the source; their conditions may differ. Structures can show the parent of a compound that is named as a salt. Where two headings read alike, the source gives them in different places."}
{"compound": "COc1cccc(OCCCN)c1-c1cc(Nc2cnc(C#N)cn2)n[nH]1", "note": "[prexasertib, Prexasertib mesylate monohydrate]", "values": [{"measurement": "best overall response (BOR)", "setting": "[1]; [9]", "value": "stable disease in 3 patients; also recorded: Three patients had a best overall response (BOR) of stable disease"}, {"measurement": "objective responses", "setting": "[1]; [9]", "value": "no objective responses"}, {"measurement": "duration of stable disease", "setting": "[1]; patient with (anaplastic) ependymoma, dose level 2", "value": 3, "unit": "cycles"}, {"measurement": "duration of stable disease", "setting": "[1]; patient with hepatocellular carcinoma, dose level 1", "value": 5, "unit": "cycles"}, {"measurement": "duration of stable disease", "setting": "[1]; patient with undifferentiated sarcoma, dose level 3", "value": 5, "unit": "cycles"}, {"measurement": "median AUC0–72h predicted for efficacy", "setting": "[2]; Calu-6 preclinical PK/PD model", "value": 1896, "unit": "ng·h/mL"}, {"measurement": "IC50 for pCHK1 inhibition (plasma concentration)", "setting": "[2]", "value": 14.1, "unit": "ng/ml"}, {"measurement": "CNS penetration", "setting": "[3]", "value": "adequate CNS penetration"}, {"measurement": "dose-limiting toxicities at the adult RP2D", "setting": "[4]; 105 mg/m^2 IV once every 14 days", "value": "no dose-limiting toxicities"}, {"measurement": "adult recommended Phase 2 dose (RP2D)", "setting": "[4]; IV once every 14 days", "value": 105, "unit": "mg/m^2"}, {"measurement": "inhibition of cell proliferation, potency", "setting": "[5]", "value": "low nanomolar concentrations"}, {"measurement": "mean AUC0–24h", "setting": "[6]; ref Hong et al. [11]", "value": 1130, "unit": "ng·h/mL"}, {"measurement": "mean AUC0–24h", "setting": "[6]; ref Iwasa et al. [20]", "value": 1690, "unit": "ng·h/mL"}, {"measurement": "CLp", "setting": "[7]; [10]", "value": "48.2 ± 11.5", "unit": "L/hr/m^2"}, {"measurement": "Vss", "setting": "[7]; [10]", "value": "245 ± 67", "unit": "L/m^2"}, {"measurement": "CLp", "setting": "[7]; [11]", "value": "45.1 L/hr/m^2 and 45.1 ± 12.6 L/hr/m^2"}, {"measurement": "Vss", "setting": "[7]; [11]", "value": "332 ± 85", "unit": "L/m^2"}, {"measurement": "CLp", "setting": "[7]; [12]", "value": "49.3 ± 10.3", "unit": "L/hr/m^2"}, {"measurement": "Vss", "setting": "[7]; [12]", "value": "292 ± 169", "unit": "L/m^2"}, {"measurement": "CLp", "setting": "[7]; [13]", "value": "44.4 L/hr/m^2 and 44.4 ± 13.5 L/hr/m^2"}, {"measurement": "Vss", "setting": "[7]; [13]", "value": "257 ± 98", "unit": "L/m^2"}, {"measurement": "exposure relative to the adult RP2D", "setting": "[7]; 150 mg/m^2 vs RP2D from either adult study", "value": "twice the exposure"}, {"measurement": "dose proportionality / linearity of PK", "setting": "[7]; 80–150 mg/m^2 dose range, single dose", "value": "linear; also recorded: proportional to dose"}, {"measurement": "CLp", "setting": "[7]; [14]", "value": "46.1 ± 12.0", "unit": "L/hr/m^2"}, {"measurement": "Vss", "setting": "[7]; [14]", "value": "276 ± 102", "unit": "L/m^2"}, {"measurement": "BSA-adjusted plasma clearance", "setting": "[7]; children <12 years (N=16)", "value": "49.4 ± 10.0", "unit": "L/hr/m^2"}, {"measurement": "plasma clearance", "setting": "[7]; females (N=9)", "value": "47.1 ± 9.7", "unit": "L/hr/m^2"}, {"measurement": "time plasma concentrations maintained above the IC50 for pCHK1 inhibition", "setting": "[7]; human, in vivo", "value": "approximately 24 hours"}, {"measurement": "Tmax", "setting": "[7]; human, intravenous", "value": "1.2 ± 0.5", "unit": "h"}, {"measurement": "half-life", "setting": "[7]; human, intravenous", "value": "8.9 ± 3.4", "unit": "h"}, {"measurement": "concentration at 24 h", "setting": "[7]; human, intravenous, 150 mg/m^2, median plasma concentration 24 hours after the first dose (C-24h)", "value": 13.4, "unit": "ng/mL"}, {"measurement": "concentration at 24 h", "setting": "[7]; human, intravenous, 150 mg/m^2, range of plasma concentration 24 hours after the first dose (C-24h)", "value": "7.6 to 43.6", "unit": "ng/mL"}, {"measurement": "AUC(0-inf)", "setting": "[7]; human, iv, 80 mg/m2", "value": "1730 ± 387", "unit": "ng·h/mL"}, {"measurement": "AUC(0-t)", "setting": "[7]; human, iv, 80 mg/m2", "value": "1620 ± 358", "unit": "ng·h/mL"}, {"measurement": "Cmax", "setting": "[7]; human, iv, 80 mg/m2", "value": "858 ± 311", "unit": "ng/mL"}, {"measurement": "Tmax", "setting": "[7]; human, iv, 80 mg/m2", "value": "1.4 ± 0.9", "unit": "h"}, {"measurement": "half-life", "setting": "[7]; human, iv, 80 mg/m2", "value": "7.6 ± 2.3", "unit": "h"}, {"measurement": "AUC(0-inf)", "setting": "[7]; human, iv, 100 mg/m2", "value": "2380 ± 712", "unit": "ng·h/mL"}, {"measurement": "AUC(0-t)", "setting": "[7]; human, iv, 100 mg/m2", "value": "2010 ± 416", "unit": "ng·h/mL"}, {"measurement": "Cmax", "setting": "[7]; human, iv, 100 mg/m2", "value": "984 ± 289", "unit": "ng/mL"}, {"measurement": "Tmax", "setting": "[7]; human, iv, 100 mg/m2", "value": "1.1 ± 0.2", "unit": "h"}, {"measurement": "half-life", "setting": "[7]; human, iv, 100 mg/m2", "value": "10 ± 3.9", "unit": "h"}, {"measurement": "AUC(0-inf)", "setting": "[7]; human, iv, 125 mg/m2", "value": "2640 ± 632", "unit": "ng·h/mL"}, {"measurement": "AUC(0-t)", "setting": "[7]; human, iv, 125 mg/m2", "value": "2460 ± 545", "unit": "ng·h/mL"}, {"measurement": "Cmax", "setting": "[7]; human, iv, 125 mg/m2", "value": "1230 ± 212", "unit": "ng/mL"}, {"measurement": "Tmax", "setting": "[7]; human, iv, 125 mg/m2", "value": "1.1 ± 0.1", "unit": "h"}, {"measurement": "half-life", "setting": "[7]; human, iv, 125 mg/m2", "value": "8.5 ± 4.5", "unit": "h"}, {"measurement": "AUC(0-inf)", "setting": "[7]; human, iv, 150 mg/m2", "value": "3680 ± 1060", "unit": "ng·h/mL"}, {"measurement": "AUC(0-t)", "setting": "[7]; human, iv, 150 mg/m2", "value": "3360 ± 898", "unit": "ng·h/mL"}, {"measurement": "Cmax", "setting": "[7]; human, iv, 150 mg/m2", "value": "1700 ± 822", "unit": "ng/mL"}, {"measurement": "Tmax", "setting": "[7]; human, iv, 150 mg/m2", "value": "1.2 ± 0.5", "unit": "h"}, {"measurement": "half-life", "setting": "[7]; human, iv, 150 mg/m2", "value": "9.2 ± 3.5", "unit": "h"}, {"measurement": "plasma clearance", "setting": "[7]; males (N=20)", "value": "45.6 ± 13.1", "unit": "L/hr/m^2"}, {"measurement": "BSA-adjusted plasma clearance", "setting": "[7]; ≥12 years (N=13)", "value": "42.2 ± 13.3", "unit": "L/hr/m^2"}, {"measurement": "tolerability", "setting": "[8]", "value": "well-tolerated"}]}
